Results from the supplement of paper PMC13380429.

Assays:
[1] = tested on: A549-ACE2 infected with SARS-CoV-2; experiment: morphology score (similarity to uninfected cells); higher = more like uninfected cells; settings: 24 h
[2] = tested on: A549-ACE2; experiment: drug-induced phospholipidosis relative to tamoxifen; higher = more phospholipidosis
[3] = tested on: Calu-3; experiment: drug sensitivity score (DSS) for viability; higher = more toxic; extreme values may be limits of the assay; settings: 72 h
[4] = tested on: Vero E6; experiment: as above; settings: 72 h
[5] = tested on: HepG2; experiment: as above; settings: 72 h
[6] = tested on: U2OS; experiment: as above; settings: 72 h
[7] = tested on: Caco-2; experiment: as above; settings: 72 h
[8] = tested on: A549-ACE2; experiment: phospholipidosis EC50; higher = less potent phospholipidosis inducer
[9] = tested on: A549-ACE2 infected with SARS-CoV-2; experiment: cell count relative to DMSO; higher = less toxic; settings: 24 h
[10] = tested on: Calu-3; experiment: cell viability relative to DMSO; higher = less toxic; settings: 72 h
[11] = tested on: Vero E6; experiment: as above; settings: 72 h
[12] = tested on: HepG2; experiment: as above; settings: 72 h
[13] = tested on: U2OS; experiment: as above; settings: 72 h
[14] = tested on: Caco-2; experiment: as above; settings: 72 h
[15] = tested on: A549-ACE2 infected with SARS-CoV-2; experiment: SARS-CoV-2 infection rate relative to DMSO; higher = more infection; settings: 24 h
[16] = tested on: Calu-3; experiment: relative viability EC50 (midpoint between 100% and the lowest measured viability); higher = less toxic; settings: 72 h
[17] = tested on: Vero E6; experiment: as above; settings: 72 h
[18] = tested on: HepG2; experiment: as above; settings: 72 h
[19] = tested on: U2OS; experiment: as above; settings: 72 h
[20] = tested on: Caco-2; experiment: as above; settings: 72 h

COc1cccc(CCc2ccccc2OCC[C@@H]2C[C@@H](O)CN2C)c1
Settings | SARS-CoV-2 infection rate [%] | cell count [%] | cell viability [%] | morphology score | phospholipidosis EC50 [µM]
[1], 0.3 µM | – | – | – | -0.09 | –
[1], 3 µM | – | – | – | 0.68 | –
[1], 10 µM | – | – | – | 0.87 | –
[1], 30 µM | – | – | – | 0.46 | –
[8], 24 h | – | – | – | – | 4.19
[8], 48 h | – | – | – | – | 6.86
[8], 72 h | – | – | – | – | 13.6
[9], 0.3 µM | – | 97 | – | – | –
[9], 3 µM | – | 111 | – | – | –
[9], 10 µM | – | 119 | – | – | –
[9], 30 µM | – | 99 | – | – | –
[10], 1 nM | – | – | 101 | – | –
[10], 10 nM | – | – | 92.9 | – | –
[10], 100 nM | – | – | 97.2 | – | –
[10], 1000 nM | – | – | 91.6 | – | –
[10], 10000 nM | – | – | 80.2 | – | –
[11], 1 nM | – | – | 105 | – | –
[11], 10 nM | – | – | 102 | – | –
[11], 100 nM | – | – | 97.5 | – | –
[11], 1000 nM | – | – | 98.8 | – | –
[11], 10000 nM | – | – | 84.9 | – | –
[12], 1 nM | – | – | 86.5 | – | –
[12], 10 nM | – | – | 91.3 | – | –
[12], 100 nM | – | – | 85.7 | – | –
[12], 1000 nM | – | – | 96.8 | – | –
[12], 10000 nM | – | – | 74.2 | – | –
[13], 1 nM | – | – | 101 | – | –
[13], 10 nM | – | – | 98.4 | – | –
[13], 100 nM | – | – | 100 | – | –
[13], 1000 nM | – | – | 98.3 | – | –
[13], 10000 nM | – | – | 92.9 | – | –
[14], 1 nM | – | – | 96.1 | – | –
[14], 10 nM | – | – | 97.4 | – | –
[14], 100 nM | – | – | 104 | – | –
[14], 1000 nM | – | – | 85.9 | – | –
[14], 10000 nM | – | – | 90 | – | –
[15], 0.3 µM | 105 | – | – | – | –
[15], 3 µM | 62 | – | – | – | –
[15], 10 µM | 22 | – | – | – | –
[15], 30 µM | 20 | – | – | – | –

drug-induced phospholipidosis [%], [2]
Settings | 0.3 µM | 0.833333 µM | 3.33333 µM | 6.66667 µM | 10 µM | 30 µM
24 h | 0.95 | 6.59 | 62.7 | 89.3 | 95.1 | 128
48 h | 5.49 | 6.45 | 45.9 | 81.8 | 98.6 | 139
72 h | 4.74 | 4.21 | 42.1 | 79.5 | 98.4 | 166

Settings | drug sensitivity score | relative viability EC50 [µM]
[3] | 0.9 | –
[4] | 0.3 | –
[5] | 0 | –
[6] | 0 | –
[7] | 1 | –
[16] | – | > 10
[17] | – | > 10
[18] | – | > 10
[19] | – | > 10
[20] | – | > 10

CC[C@@H](C)CNCC(=O)N1CCc2sccc2[C@@H]1COc1cccc(C)c1 [RU-SKI-43]
Settings | SARS-CoV-2 infection rate [%] | cell count [%] | cell viability [%] | morphology score | phospholipidosis EC50 [µM]
[1], 0.3 µM | – | – | – | -0.05 | –
[1], 3 µM | – | – | – | 0.65 | –
[1], 10 µM | – | – | – | 0.83 | –
[1], 30 µM | – | – | – | 0.3 | –
[8], 24 h | – | – | – | – | 3.7
[8], 48 h | – | – | – | – | 4.58
[8], 72 h | – | – | – | – | 6.66
[9], 0.3 µM | – | 98 | – | – | –
[9], 3 µM | – | 116 | – | – | –
[9], 10 µM | – | 119 | – | – | –
[9], 30 µM | – | 100 | – | – | –
[10], 1 nM | – | – | 94.9 | – | –
[10], 10 nM | – | – | 103 | – | –
[10], 100 nM | – | – | 102 | – | –
[10], 1000 nM | – | – | 109 | – | –
[10], 10000 nM | – | – | 80.8 | – | –
[11], 1 nM | – | – | 93.7 | – | –
[11], 10 nM | – | – | 92.9 | – | –
[11], 100 nM | – | – | 90.4 | – | –
[11], 1000 nM | – | – | 98.3 | – | –
[11], 10000 nM | – | – | 92.8 | – | –
[12], 1 nM | – | – | 104 | – | –
[12], 10 nM | – | – | 94.5 | – | –
[12], 100 nM | – | – | 99.6 | – | –
[12], 1000 nM | – | – | 108 | – | –
[12], 10000 nM | – | – | 86.8 | – | –
[13], 1 nM | – | – | 95.5 | – | –
[13], 10 nM | – | – | 98.1 | – | –
[13], 100 nM | – | – | 94.4 | – | –
[13], 1000 nM | – | – | 99.5 | – | –
[13], 10000 nM | – | – | 93 | – | –
[14], 1 nM | – | – | 98.8 | – | –
[14], 10 nM | – | – | 103 | – | –
[14], 100 nM | – | – | 90.4 | – | –
[14], 1000 nM | – | – | 107 | – | –
[14], 10000 nM | – | – | 83.2 | – | –
[15], 0.3 µM | 102 | – | – | – | –
[15], 3 µM | 60 | – | – | – | –
[15], 10 µM | 24 | – | – | – | –
[15], 30 µM | 24 | – | – | – | –

drug-induced phospholipidosis [%], [2]
Settings | 0.3 µM | 0.833333 µM | 3.33333 µM | 6.66667 µM | 10 µM | 30 µM
24 h | 2.31 | 9.84 | 41 | 92 | 102 | 95.8
48 h | 1.76 | 10.7 | 27.3 | 78.5 | 100 | 95
72 h | 3.03 | 9.34 | 27.4 | 73.8 | 102 | –

Settings | drug sensitivity score | relative viability EC50 [µM]
[3] | 0.3 | –
[4] | 0 | –
[5] | 0 | –
[6] | 0 | –
[7] | 0.2 | –
[16] | – | > 10
[17] | – | > 10
[18] | – | > 10
[19] | – | > 10
[20] | – | > 10
